Test results published in ChEMBL document CHEMBL1147830, “Isoquinoline-pyridine-based protein kinase B/Akt antagonists: SAR and in vivo antitumor activity” (Bioorg Med Chem Lett, 2006).

Tests used:
[1] = Half life in CD1 mouse at 3 mg/kg, iv; format: ADME, organism-based; design: dose 3 mg/kg, route intravenous; conditions: in vivo
[2] = Bioavailability in CD1 mouse at 10 mg/kg, po; format: ADME, organism-based; conditions: in vivo
[3] = AUC in CD1 mouse at 10 mg/kg, po; format: ADME, organism-based; design: dose 10 mg/kg, route oral; conditions: plasma
[4] = Clearance in CD1 mouse at 3 mg/kg, iv or 10 mg/kg, po or 30 mg, sc; format: ADME, organism-based; design: unit not given here; conditions: in vivo
[5] = Volume of distribution in CD1 mouse at 3 mg/kg, iv or 10 mg/kg, po or 30 mg, sc; format: ADME, organism-based; conditions: in vivo, read-out: Vdss
[6] = target: RAC-beta serine/threonine-protein kinase (Homo sapiens, UniProt P31751); assay: Inhibition of Akt2 at 5 uM ATP
Chain of RAC-beta serine/threonine-protein kinase (P31751 whole entry): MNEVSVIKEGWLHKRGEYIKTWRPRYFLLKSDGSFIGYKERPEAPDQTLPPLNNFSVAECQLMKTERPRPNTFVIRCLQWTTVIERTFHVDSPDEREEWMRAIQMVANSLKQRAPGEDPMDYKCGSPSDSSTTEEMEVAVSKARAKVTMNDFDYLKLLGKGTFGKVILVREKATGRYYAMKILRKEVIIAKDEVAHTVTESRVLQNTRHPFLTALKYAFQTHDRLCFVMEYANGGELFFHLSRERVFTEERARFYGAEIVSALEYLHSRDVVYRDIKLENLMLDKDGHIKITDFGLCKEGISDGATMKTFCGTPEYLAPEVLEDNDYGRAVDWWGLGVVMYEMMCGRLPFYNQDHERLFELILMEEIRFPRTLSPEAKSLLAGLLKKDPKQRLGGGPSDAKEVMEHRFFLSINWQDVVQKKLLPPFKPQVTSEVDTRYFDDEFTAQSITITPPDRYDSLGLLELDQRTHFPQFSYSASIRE

[7] = target: RAC-gamma serine/threonine-protein kinase (Homo sapiens, UniProt Q9Y243); assay: Inhibition of Akt3 at 5 uM ATP
Chain of RAC-gamma serine/threonine-protein kinase (Q9Y243 whole entry): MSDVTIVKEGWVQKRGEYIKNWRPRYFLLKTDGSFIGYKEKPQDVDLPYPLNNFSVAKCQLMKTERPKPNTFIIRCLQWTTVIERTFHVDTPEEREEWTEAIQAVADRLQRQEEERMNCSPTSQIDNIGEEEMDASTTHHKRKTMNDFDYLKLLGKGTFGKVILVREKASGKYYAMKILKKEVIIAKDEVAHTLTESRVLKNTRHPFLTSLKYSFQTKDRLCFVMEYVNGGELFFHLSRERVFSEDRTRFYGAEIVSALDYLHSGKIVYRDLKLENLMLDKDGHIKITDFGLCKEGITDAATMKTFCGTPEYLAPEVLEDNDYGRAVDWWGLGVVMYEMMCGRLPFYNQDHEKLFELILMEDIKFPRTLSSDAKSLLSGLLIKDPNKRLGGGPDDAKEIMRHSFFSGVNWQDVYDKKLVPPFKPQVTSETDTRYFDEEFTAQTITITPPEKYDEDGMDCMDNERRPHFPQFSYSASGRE

MIA PaCa-2 = assay: Antiproliferative activity against human MiaPaCa2 cells by MTT assay; format: functional, cell-based
[8] = target: Protein kinase C gamma type (Homo sapiens, UniProt P05129); assay: Inhibition of PKC gamma at 5 uM ATP
[9] = target: Proto-oncogene tyrosine-protein kinase Src (Homo sapiens, UniProt P12931); assay: Inhibition of SRC at 5 uM ATP
Chain of Proto-oncogene tyrosine-protein kinase Src (P12931 2-536 limits assumed): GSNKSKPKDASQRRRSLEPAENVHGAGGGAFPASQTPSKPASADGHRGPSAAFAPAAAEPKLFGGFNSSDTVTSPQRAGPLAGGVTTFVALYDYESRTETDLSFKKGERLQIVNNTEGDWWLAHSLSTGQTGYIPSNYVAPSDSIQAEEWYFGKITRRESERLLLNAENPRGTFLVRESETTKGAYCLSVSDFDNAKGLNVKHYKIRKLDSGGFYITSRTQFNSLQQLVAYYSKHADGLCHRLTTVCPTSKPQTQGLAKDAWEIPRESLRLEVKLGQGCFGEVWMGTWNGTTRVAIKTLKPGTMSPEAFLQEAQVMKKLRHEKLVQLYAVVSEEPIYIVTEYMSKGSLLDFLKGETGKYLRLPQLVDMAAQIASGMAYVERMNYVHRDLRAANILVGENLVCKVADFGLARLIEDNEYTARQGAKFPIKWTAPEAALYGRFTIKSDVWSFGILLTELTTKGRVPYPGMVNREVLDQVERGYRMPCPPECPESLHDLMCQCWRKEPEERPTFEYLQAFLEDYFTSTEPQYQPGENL

Casein kinase II = Casein kinase II (Homo sapiens, UniProt P19784+P67870+P68400); assay: Inhibition of CK2 at 5 uM ATP; format: protein-complex assay
Chain of Casein kinase II (P67870 whole entry): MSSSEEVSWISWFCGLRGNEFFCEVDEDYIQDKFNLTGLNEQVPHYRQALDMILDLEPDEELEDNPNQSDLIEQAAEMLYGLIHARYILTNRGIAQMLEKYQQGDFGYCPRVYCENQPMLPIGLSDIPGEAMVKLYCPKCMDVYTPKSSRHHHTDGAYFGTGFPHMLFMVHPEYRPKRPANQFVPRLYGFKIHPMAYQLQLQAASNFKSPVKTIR
Chain of Casein kinase II (P68400 whole entry): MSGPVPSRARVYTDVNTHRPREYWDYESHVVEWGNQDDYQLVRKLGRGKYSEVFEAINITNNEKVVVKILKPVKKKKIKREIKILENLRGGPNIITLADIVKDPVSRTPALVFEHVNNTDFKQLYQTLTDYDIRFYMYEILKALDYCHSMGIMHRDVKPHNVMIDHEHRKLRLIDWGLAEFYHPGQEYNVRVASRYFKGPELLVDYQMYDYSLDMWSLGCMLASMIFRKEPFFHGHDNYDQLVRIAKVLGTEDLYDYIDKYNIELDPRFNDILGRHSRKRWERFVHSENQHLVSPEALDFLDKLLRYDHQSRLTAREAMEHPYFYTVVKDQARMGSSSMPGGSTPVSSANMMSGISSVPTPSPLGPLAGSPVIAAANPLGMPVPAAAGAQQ
Chain of Casein kinase II (P19784 whole entry): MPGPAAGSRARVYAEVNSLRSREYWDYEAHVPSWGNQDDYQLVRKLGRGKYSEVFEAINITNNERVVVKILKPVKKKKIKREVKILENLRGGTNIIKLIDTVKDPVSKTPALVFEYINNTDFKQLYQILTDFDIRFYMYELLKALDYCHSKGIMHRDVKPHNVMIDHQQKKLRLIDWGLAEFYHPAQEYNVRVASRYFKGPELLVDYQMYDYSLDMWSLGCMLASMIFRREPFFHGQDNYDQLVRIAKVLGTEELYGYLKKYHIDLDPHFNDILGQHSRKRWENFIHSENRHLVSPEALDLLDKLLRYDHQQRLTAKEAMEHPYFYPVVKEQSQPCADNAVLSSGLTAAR

[10] = target: T1, Protein kinase C epsilon type (Homo sapiens, UniProt Q02156); assay: Inhibition of PKC epsilon at 5 uM ATP
T1 sequence (Q02156 whole entry): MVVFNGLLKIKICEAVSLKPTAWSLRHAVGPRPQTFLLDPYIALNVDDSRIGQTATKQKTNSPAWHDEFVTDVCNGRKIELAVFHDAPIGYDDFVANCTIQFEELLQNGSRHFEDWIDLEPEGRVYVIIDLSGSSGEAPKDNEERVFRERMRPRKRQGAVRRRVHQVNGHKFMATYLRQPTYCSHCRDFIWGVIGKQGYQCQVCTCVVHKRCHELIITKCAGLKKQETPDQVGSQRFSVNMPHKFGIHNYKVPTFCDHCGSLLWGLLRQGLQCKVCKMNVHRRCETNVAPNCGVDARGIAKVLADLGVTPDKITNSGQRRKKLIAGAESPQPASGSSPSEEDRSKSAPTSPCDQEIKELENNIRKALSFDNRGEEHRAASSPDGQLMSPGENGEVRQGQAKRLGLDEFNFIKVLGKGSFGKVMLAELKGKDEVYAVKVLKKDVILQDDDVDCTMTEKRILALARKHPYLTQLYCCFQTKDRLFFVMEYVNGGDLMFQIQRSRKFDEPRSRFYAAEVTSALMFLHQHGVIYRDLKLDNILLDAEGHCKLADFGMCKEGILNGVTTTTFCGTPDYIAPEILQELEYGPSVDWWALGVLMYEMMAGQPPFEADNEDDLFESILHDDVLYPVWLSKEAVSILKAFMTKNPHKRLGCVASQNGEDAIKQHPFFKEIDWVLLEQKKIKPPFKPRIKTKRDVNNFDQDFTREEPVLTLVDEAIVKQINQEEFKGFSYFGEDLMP

[11] = target: Mitogen-activated protein kinase 1 (Homo sapiens, UniProt P28482); assay: Inhibition of ERK2 at 5 uM ATP
Chain of Mitogen-activated protein kinase 1 (P28482 whole entry): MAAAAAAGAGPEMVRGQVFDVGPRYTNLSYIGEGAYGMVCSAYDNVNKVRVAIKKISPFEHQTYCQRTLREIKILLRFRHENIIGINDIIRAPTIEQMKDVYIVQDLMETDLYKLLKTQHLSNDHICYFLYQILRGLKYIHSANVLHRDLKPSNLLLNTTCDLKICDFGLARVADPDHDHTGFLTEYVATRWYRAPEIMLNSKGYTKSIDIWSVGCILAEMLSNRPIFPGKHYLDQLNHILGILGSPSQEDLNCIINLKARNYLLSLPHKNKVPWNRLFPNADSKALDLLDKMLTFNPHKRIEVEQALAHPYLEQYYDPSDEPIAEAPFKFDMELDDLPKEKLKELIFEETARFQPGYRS

[12] = target: Cyclin-dependent kinase 1 (Homo sapiens, UniProt P06493); assay: Inhibition of CDK1 at 5 uM ATP
Chain of Cyclin-dependent kinase 1 (P06493 whole entry): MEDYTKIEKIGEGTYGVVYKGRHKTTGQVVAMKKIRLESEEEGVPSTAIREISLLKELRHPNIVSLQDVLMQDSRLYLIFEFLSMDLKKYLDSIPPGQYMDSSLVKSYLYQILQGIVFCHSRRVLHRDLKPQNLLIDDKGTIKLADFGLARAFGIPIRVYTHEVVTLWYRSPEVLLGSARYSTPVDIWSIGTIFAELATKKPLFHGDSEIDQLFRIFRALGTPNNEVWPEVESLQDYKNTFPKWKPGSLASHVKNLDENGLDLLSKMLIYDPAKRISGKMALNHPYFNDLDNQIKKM

[13] = target: cAMP-dependent protein kinase (PKA) (Homo sapiens, UniProt P22694+P17612+P22612); assay: Inhibition of PKA at 5 uM ATP; format: protein assay
[14] = target: RAC-alpha serine/threonine-protein kinase (Homo sapiens, UniProt P31749); assay: Inhibition of GSK3 phosphorylation; format: functional
Chain of RAC-alpha serine/threonine-protein kinase (P31749 whole entry): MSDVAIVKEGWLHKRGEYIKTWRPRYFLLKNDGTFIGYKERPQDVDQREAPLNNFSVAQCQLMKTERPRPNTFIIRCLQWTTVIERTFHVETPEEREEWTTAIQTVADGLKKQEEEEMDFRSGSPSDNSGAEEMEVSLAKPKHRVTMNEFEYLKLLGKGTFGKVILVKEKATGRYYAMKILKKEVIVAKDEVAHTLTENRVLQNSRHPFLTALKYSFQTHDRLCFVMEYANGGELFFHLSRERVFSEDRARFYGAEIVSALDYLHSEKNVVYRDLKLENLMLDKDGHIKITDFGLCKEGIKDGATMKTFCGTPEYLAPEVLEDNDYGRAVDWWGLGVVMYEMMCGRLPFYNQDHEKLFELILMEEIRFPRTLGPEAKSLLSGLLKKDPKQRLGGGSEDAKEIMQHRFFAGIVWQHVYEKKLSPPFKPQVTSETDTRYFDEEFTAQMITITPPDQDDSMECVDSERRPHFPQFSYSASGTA

[15] = AUC in CD1 mouse at 30 mg, sc; format: ADME, organism-based; conditions: plasma
[16] = Antiproliferative activity against mouse FL5.12 cells overexpressing Akt1 by MTT assay

Structure (SMILES) | half-life [1] [h] | bioavailability [2] [%] | AUC [3] [ng·h/mL] | clearance [4] | Vd [5] [L/kg] | IC50 [6] [nM] | IC50 [7] [nM] | IC50 (MIA PaCa-2) [nM] | IC50 [8] [nM] | IC50 [9] [nM] | IC50 (Casein kinase II) [nM] | IC50 [10] [nM] | IC50 [11] [nM] | IC50 [12] [nM] | IC50 [13] [nM] | IC50 [14] [nM] | AUC [15] [ng·h/mL] | IC50 [16] [nM]
Cc1cc(-c2cncc(OC[C@@H](N)Cc3c[nH]c4ccccc34)c2)cc2ccncc12 | 4.5 | 35 | 1500 | 41.7 | 16.4 | – | – | – | – | – | – | – | – | – | – | – | – | –
C#Cc1ncc(OC[C@@H](N)Cc2c[nH]c3ccccc23)cc1-c1ccc2cnccc2c1 | – | – | – | – | – | 5 | 39 | 10800 | 260 | > 50000 | > 50000 | 8900 | 27200 | 4900 | 1 | – | – | –
N[C@H](COc1cncc(-c2ccc3cnc(F)cc3c2)c1)Cc1c[nH]c2ccccc12 | – | – | – | – | – | – | – | 3180 | – | 18000 | – | – | – | 3400 | 48 | – | – | –
N[C@H](COc1cnc(Cl)c(-c2ccc3cnccc3c2)c1)Cc1c[nH]c2ccccc12 | – | – | – | – | – | 5 | 73 | 13300 | 540 | 12100 | 12700 | > 5000 | 37000 | 870 | 5 | 3000 | – | –
N[C@H](COc1cncc(-c2ccc3cnc(Cl)cc3c2)c1)Cc1c[nH]c2ccccc12 | 2 | 27 | 910 | 90 | 15.5 | – | – | – | – | – | – | – | – | – | – | – | – | –
Nc1cc2cc(-c3cncc(OC[C@@H](N)Cc4c[nH]c5ccccc45)c3)ccc2cn1 | 0.7 | 0 | – | 202 | 11.8 | 21 | 76 | 100 | 31 | 480 | 620 | 8300 | 1200 | 22 | 8 | 930 | 6900 | –
N[C@H](COc1cncc(-c2ccc3cnccc3c2)c1)Cc1c[nH]c2ccccc12 | 0.3 | 0 | – | – | 7 | – | – | – | – | 2000 | – | 6100 | – | – | – | 1500 | 7600 | 420
N[C@H](COc1cncc(-c2ccc3c(Cl)nccc3c2)c1)Cc1c[nH]c2ccccc12 | 5 | 51 | 3900 | 21.7 | 9.5 | – | – | – | – | – | – | – | – | – | – | – | – | –
